1 compound from patent US20250161446A1, “MODIFIED IMMUNE CELLS FOR TREATING AND/OR PREVENTING METASTASIS” (TECHNISCHE UNIVERSITÄT MÜNCHEN, priority 2022, published 2025) can be followed below.

Experiment [1] deals with NK cells. Description: Cytokine release assay of mouse NK cells upon anti-NK1.1 stimulation (ELISA, multiplex). The experiment is classed as cell-based. Here is the method:
(§1) For the isolation of mouse NK cells, the spleen was excised from mice and passed through a steel sieve. Red blood cells were lysed by incubating the cells with ammonium chloride potassium buffer for 2 min. Following filtration through a 70 μm cell strainer, CD49b^+ leukocytes were purified by immunomagnetic separation to enrich for CD49b^+ NK cells. Th cells were stained with anti-CD49b FITC, anti-CD3ε PerCP/Cy5.5, anti-CD19 PE/eF610 and CD64 PE/Cy7 for 15 min at 4° C. and NK cells, phenotypically identified as CD49b^+CD3ε^−CD19^−CD64^− cells, were FACS-sorted using a SH800 Cell Sorter. After isolation, NK cells were cultured in low doses of IL2 and IL15/IL15Ra for five days to rest the cells and generate functional NK cells.
(§2) For experiments with tumor factors (TF), cells were incubated in a 1:1 mixture of complete RPMI medium with TF-containing conditioned medium from cancer cells. For the inhibitor studies, cells were first incubated with single EP receptor inhibitors (EP1-EP4) or inhibitor combinations at a concentration of 5 μM for 30 min, before adding 100 ng/ml PGE2 for 16 h at 37° C. For the RNA and ATAC sequencing approach, NK cells were only pre-treated for 1 h with PGE2 and then stimulated (as described below) for further 4 h.
To assess cytokine and chemokine production and degranulation, NK cells were stimulated with plate-bound anti-NK1.1 (PK136), mimicking their activation in metastasis. Human NK cells were activated by incubation with the human […] cell line K562. For analysis of cytokine and chemokine production, Brefeldin A was added 1 h after stimulation to block intracellular protein transport processes. 3 h later, cells were stained for flow cytometric analysis. For analysis of degranulation, stimulation was done in presence of anti-LAMP-1 antibody, and Monensin was added 1 h later to prevent acidification of endolytic vesicles.
To assess the production of cytokines in cell culture supernatants, NK cells were stimulated for 16 h and cell-free supernatants were harvested and stored at −20° C. until further use. Cytokine concentrations in the culture supernatants were measured by enzyme-linked immunosorbent assays (ELISA) or a multiplex cytokine assay (Bio-Plex Pro Mouse Cytokine 23-plex).
(In general: In an ELISA, binding on a coated surface is turned into a signal by an enzyme label.)

In another experiment the test system is human NK cells. Description: Human NK cell cytokine production upon stimulation with K562 (flow cytometry). It is filed as cell-based. Particulars: PGE2 16 h. The text has this:
(§3) Human NK cells and CD8+ T cells were isolated from blood of healthy, voluntary donors after they gave written and informed consent. Blood was mixed with PBS and loaded on Pancoll to isolate peripheral blood mononuclear cells (PBMCs) through centrifugation. NK cells were then isolated by negative selection using the Untouched Human NK Cell Isolation Kit (ThermoFisher). CD8+ T cells were then isolated by negative selection using the Untouched Human CD8+ T Cell Isolation Kit (Miltenyi).
(§4) Murine or human NK cells or CD8^+ T cells were treated with 1-100 ng/ml synthetic PGE2 or medium as control for 16 h at 37° C. For experiments with tumor factors (TF), cells were incubated in a 1:1 mixture of complete RPMI medium with TF-containing conditioned medium from cancer cells. For the inhibitor studies, cells were first incubated with single EP receptor inhibitors (EP1-EP4) or inhibitor combinations at a concentration of 5 μM for 30 min, before adding 100 ng/ml PGE2 for 16 h at 37° C. […]
(§5) For flow cytometric analysis, cells were resuspended in staining buffer containing antibodies for surface molecules and incubated for 15 min. […] Intracellular staining of cytokines (including IFNγ and TNF) was performed in permeabilization buffer and cells were subsequently analyzed by flow cytometry. […]
A general note: Flow cytometry measures light scatter and fluorescence of single cells or particles in a stream.

Another experiment relates to BRAF^V600E tumor cells. Description: NK cell cytotoxicity assay (xCelligence impedance). The experiment is classed as cell-based, mouse. The note with it: PGE2-treated NK cells co-cultured with tumor cells. The procedure: Measurement of the dynamics of NK cell cytotoxicity against BRAF^V600E tumor cells over time was performed with the impedance-based technology using an xCelligence RTCA MP device (ACEA Biosciences). The xCELLigence RTCA system measures changes in impedance generated by adherence of cells to electrodes on the bottom of the wells of E-Plates and calculates a parameter called Cell Index. For the assays, tumor cells were seeded in 96-well E-plates. After tumor cells reached confluency and a maximum cell index, in vitro cultured NK cells were added in different effector-to-target ratios. Killing was measured by declining cell index values. Percentage of specific cytotoxicity was finally calculated to the index values from tumor cells alone.

Another experiment concerns human CD8^+ T cells. Description: Human CD8^+ T cell expansion after anti-CD3/CD28+IL-12 stimulation. It is filed as cell-based. The note with it: PGE2 16 h, expansion 72 h later.
Source text: as §3
as §2, with “Murine or human NK cells or CD8^+ T cells were treated with 1-100 ng/ml synthetic PGE2 or medium as control for 16 h at 37° C. For experiments” for “For experiments”
(§6) To assess T cell differentiation and expansion, CD8^+ T cells were stimulated with anti-CD3/CD28 microbeads plus Interleukin-12 (10 ng/ml), mimicking their activation in metastasis or tumor tissue, and cell numbers were quantified 72 h later by flow cytometry.

The subject of the next experiment is mouse CD8^+ T cells. Description: Mouse CD8^+ T cell expansion after anti-CD3/CD28+IL-12 stimulation. The experiment is classed as cell-based. The note with it: PGE2 16 h, expansion 72 h later. Here is the method: For the isolation of mouse CD8^+ T cells, the spleen was excised from mice and passed through a steel sieve. Red blood cells were lysed by incubating the cells with ammonium chloride potassium buffer for 2 min. Following filtration through a 70 μm cell strainer, CD8^+ T cells were purified by immunomagnetic separation using anti-CD8 microbeads. After isolation, CD8^+ T cells were cultured with low dose IL2 and CD3/CD28 stimulatory beads to generate effector-like CD8+ T cells for in vitro assays.
as §4, §6

For experiment [2], the system named is NK cells. Description: Granzyme B expression in NK cells by flow cytometry. It is filed as cell-based, mouse. Particulars: untreated vs PGE2-treated NK cells. Here is the method:
as §1
Murine or human NK cells or CD8^+ T cells were treated with 1-100 ng/ml synthetic PGE2 or medium as control for 16 h at 37° C. For experiments with tumor factors (TF), cells were incubated in a 1:1 mixture of complete RPMI medium with TF-containing conditioned medium from cancer cells. […]
as §5

Experiment [3] deals with NK cells. Description: NK cell degranulation (LAMP-1 staining) upon anti-NK1.1 stimulation. The experiment is classed as cell-based, mouse. The note with it: PGE2 pre-treatment 16 h. Here is the method:
as §1
as §2, with “Murine or human NK cells or CD8^+ T cells were treated with 1-100 ng/ml synthetic PGE2 or medium as control for 16 h at 37° C. For experiments” for “For experiments”, “4 h. […]” for “4 h.”

The mark [4] stands for this setting: anti-NK1.1 stimulation in presence of PGE2.

Consider `CCCCC[C@H](O)/C=C/[C@H]1[C@H](O)CC(=O)[C@@H]1C/C=C\CCCC(=O)O` [PGE2, prostaglandin E2], for which the “XCL1 secretion after transient PGE2 treatment” value with NK cells [1] (PGE2 24 h, then removed for 24 h before anti-NK1.1 stimulation) is listed as “strong inhibitory effects”. For the same compound, in the experiment with NK cells [1] (setting [4]), the “IFNγ release by NK cells” value is “markedly reduced in a dose-dependent manner” and the “XCL1 release by NK cells” value is on record as “markedly reduced in a dose-dependent manner”. Besides, the “secretion of other effector cytokines, chemokines and growth factors by NK cells” value in the experiment with NK cells [1] (upon stimulation, multiplex assay) is listed as “diminished the secretion”. The “cytokine and chemokine production (IFNγ, TNF, XCL1) by human NK cells” value in the experiment with human NK cells was “impaired the cytokine and chemokine production”. Moreover, the “NK cell mediated killing of tumor cells” value in the experiment with BRAF^V600E tumor cells is listed as “effectively eliminate the tumor cells”. Moreover, in the experiment with human CD8^+ T cells, the “expansion of human CD8^+ T cells upon stimulation” value is “Identical findings”. Further, the “expansion of mouse CD8^+ T cells upon stimulation” value in the experiment with mouse CD8^+ T cells is on record as “strongly impaired”. Besides, the “granzyme B levels in NK cells” value in the experiment on NK cells [2] is given as “unaffected”. In addition, the “degranulation (LAMP-1 staining) of NK cells” value in the experiment on NK cells [3] was “only slightly reduced”.
